Test results from US20250098679A1, “HERBICIDAL PYRIDONE DERIVATIVES” (SYNGENTA CROP PROTECTION AG, priority 2021, published 2025).

Columns and labels:
Assay type in all cases: in vivo
Conditions in all cases: evaluated after 13 days
[1] = test system: Amaranthus retoflexus (AMARE); assay: Pre-emergence Test, Amaranthus retoflexus (AMARE)
[2] = test system: Ipomoea hederacea (IPOHE); assay: Pre-emergence Test, Ipomoea hederacea (IPOHE)
[3] = test system: Zea mays (ZEAMX); assay: Pre-emergence Test, Zea mays (ZEAMX)
[4] = test system: Setaria faberi (SETFA); assay: Pre-emergence Test, Setaria faberi (SETFA)
[5] = test system: Amaranthus retoflexus (AMARE); assay: Post-emergence Test, Amaranthus retoflexus (AMARE); design: key to percentage damage caused to the plant, AMARE (five-point scale): 5=81-100%, 4=61-80%, 3=41-60%, 2=21-40%, 1=0-20% damage
Outline: (§1)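 Percent plant damage was rated 13 days post-application on a 1–5 scale (1=0-20%, 5=81-100%). Application used an aqueous acetone (50:50)/0.5% Tween 20 spray, normally 1000 g/ha, with controlled glasshouse conditions (24/16 °C, 14 h light, 65% humidity).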

[6] = test system: Amaranthus palmeri (AMAPA); assay: Post-emergence Test, Amaranthus palmeri (AMAPA); design: key: 5=81-100%, 4=61-80%, 3=41-60%, 2=21-40%, 1=0-20% damage
Outline: as §1

[7] = test system: Echinochloa crus-galli (ECHCG); assay: Post-emergence Test, Echinochloa crus-galli (ECHCG); design: key to percentage damage caused to the plant, ECHCG (five-point scale): 5=81-100%, 4=61-80%, 3=41-60%, 2=21-40%, 1=0-20% damage
Outline: as §1

[8] = test system: Setaria faberi (SETFA); assay: Post-emergence Test, Setaria faberi (SETFA); design: key to percentage damage caused to the plant, SETFA (five-point scale): 5=81-100%, 4=61-80%, 3=41-60%, 2=21-40%, 1=0-20% damage
Outline: as §1

[9] = test system: Ipomoea hederacea (IPOHE); assay: Post-emergence Test, Ipomoea hederacea (IPOHE); design: key to percentage damage caused to the plant, IPOHE (five-point scale): 5=81-100%, 4=61-80%, 3=41-60%, 2=21-40%, 1=0-20% damage
Outline: as §1

[10] = test system: Echinochloa crus-galli (ECHCG); assay: Pre-emergence Test, Echinochloa crus-galli (ECHCG)
[11] = test system: Zea mays (ZEAMX); assay: Post-emergence Test, Zea mays (ZEAMX); design: key to percentage damage caused to the plant, ZEAMX (five-point scale): 5=81-100%, 4=61-80%, 3=41-60%, 2=21-40%, 1=0-20% damage
Outline: as §1

[12] = test system: Amaranthus palmeri (AMAPA); assay: Pre-emergence Test, Amaranthus palmeri (AMAPA)

| Structure (SMILES) | Pre-emergence Test AMARE, percentage damage caused to the plant (five-point scale) ([1]; 250 g/Ha (*)) | Pre-emergence Test AMARE, percentage damage caused to the plant (five-point scale) ([1]; 1000 g/ha) | Pre-emergence Test IPOHE, percentage damage caused to the plant (five-point scale) ([2]; 250 g/Ha (*)) | Pre-emergence Test IPOHE, percentage damage caused to the plant (five-point scale) ([2]; 1000 g/ha) | Pre-emergence Test ZEAMX, percentage damage caused to the plant (five-point scale) ([3]; 250 g/Ha (*)) | Pre-emergence Test ZEAMX, percentage damage caused to the plant (five-point scale) ([3]; 1000 g/ha) | Pre-emergence Test SETFA, percentage damage caused to the plant (five-point scale) ([4]; 250 g/Ha (*)) | Pre-emergence Test SETFA, percentage damage caused to the plant (five-point scale) ([4]; 1000 g/ha) | percentage damage caused to the plant, AMARE (five-point scale) ([5]; 250 g/Ha) | percentage damage caused to the plant, AMARE (five-point scale) ([5]; 1000 g/ha) | percentage damage caused to the plant, AMAPA (five-point scale) ([6]; 250 g/Ha) | percentage damage caused to the plant, AMAPA (five-point scale) ([6]; 1000 g/ha) | percentage damage caused to the plant, ECHCG (five-point scale) ([7]; 250 g/Ha) | percentage damage caused to the plant, ECHCG (five-point scale) ([7]; 1000 g/ha) | percentage damage caused to the plant, SETFA (five-point scale) ([8]; 250 g/Ha) | percentage damage caused to the plant, SETFA (five-point scale) ([8]; 1000 g/ha) | percentage damage caused to the plant, IPOHE (five-point scale) ([9]; 250 g/Ha) | percentage damage caused to the plant, IPOHE (five-point scale) ([9]; 1000 g/ha) | Pre-emergence Test ECHCG, percentage damage caused to the plant (five-point scale) ([10]; 250 g/Ha (*)) | Pre-emergence Test ECHCG, percentage damage caused to the plant (five-point scale) ([10]; 1000 g/ha) | further results |
| --- | --- | --- | --- | --- | --- | --- | --- | --- | --- | --- | --- | --- | --- | --- | --- | --- | --- | --- | --- | --- | --- |
| CCn1c(Cn2cc3c(n2)COC3)cc(=O)c(C(=O)O)c1-c1ccc(Cl)c(Cl)c1 [Compound 92, 2-(3,4-dichlorophenyl)-6-(4,6-dihydrofuro[3,4-c]pyrazol-2-ylmethyl)-1-ethyl-4-oxo-pyridine-3-carboxylic acid] | 0 | 0 | 3 (3=41-60%) | 2 (2=21-40%) | 0 | 0 | 3 (3=41-60%) | 4 (4=61-80%) | 2 (2=21-40%) | 2 (2=21-40%) | 2 (2=21-40%) | 2 (2=21-40%) | 3 (3=41-60%) | 4 (4=61-80%) | 3 (3=41-60%) | 3 (3=41-60%) | 3 (3=41-60%) | 3 (3=41-60%) | 3 (3=41-60%) | 4 (4=61-80%) | percentage damage caused to the plant, ZEAMX (five-point scale) ([11]; 250 g/Ha): 2 (2=21-40%); percentage damage caused to the plant, ZEAMX (five-point scale) ([11]; 1000 g/ha): 2 (2=21-40%); Pre-emergence Test AMAPA, percentage damage caused to the plant (five-point scale) ([12]; 250 g/Ha (*)): 1 (1=0-20%); Pre-emergence Test AMAPA, percentage damage caused to the plant (five-point scale) ([12]; 1000 g/ha): 2 (2=21-40%) |
| CCn1c(Cn2cncc2Cl)cc(=O)c(C(=O)O)c1-c1ccc(Cl)c(Cl)c1 [Compound 79, 6-[(5-chloroimidazol-1-yl)methyl]-2-(3,4-dichlorophenyl)-1-ethyl-4-oxo-pyridine-3-carboxylic acid] | 0 |  | 0 |  | 0 |  | 1 (1=0-20%) |  | 1 (1=0-20%) |  | 0 |  | 1 (1=0-20%) |  | 0 |  | 1 (1=0-20%) |  | 1 (1=0-20%) |  | percentage damage caused to the plant, ZEAMX (five-point scale) ([11]; 250 g/Ha): 1 (1=0-20%); Pre-emergence Test AMAPA, percentage damage caused to the plant (five-point scale) ([12]; 250 g/Ha (*)): 1 (1=0-20%) |
| CCn1c(Cn2nc(C)cc2O)cc(=O)c(C(=O)O)c1-c1ccc(Cl)c(Cl)c1 [Compound 146, 2-(3,4-dichlorophenyl)-1-ethyl-6-[(5-hydroxy-3-methyl-pyrazol-1-yl)methy]-4-oxo-pyridine-3-carboxylic acid] |  | 0 |  | 0 |  | 0 |  | 1 (1=0-20%) |  | 0 |  | 0 |  | 0 |  | 1 (1=0-20%) |  | 0 |  | 1 (1=0-20%) | percentage damage caused to the plant, ZEAMX (five-point scale) ([11]; 1000 g/ha): 0; Pre-emergence Test AMAPA, percentage damage caused to the plant (five-point scale) ([12]; 1000 g/ha): 0 |
